According to ChEMBL document CHEMBL1133230, “1-Aminomethylisoquinoline-4-carboxylates as novel dipeptidylpeptidase IV inhibitors” (Bioorg Med Chem Lett, 2000):

These molecules were tested against Dipeptidyl peptidase 4 (Homo sapiens, UniProt P27487) (assay: In vitro inhibition of Dipeptidylpeptidase IV from Caco-2 (human colon carcinoma) cells.).
Type: cell-based

Sequence of Dipeptidyl peptidase 4 (P27487 whole entry): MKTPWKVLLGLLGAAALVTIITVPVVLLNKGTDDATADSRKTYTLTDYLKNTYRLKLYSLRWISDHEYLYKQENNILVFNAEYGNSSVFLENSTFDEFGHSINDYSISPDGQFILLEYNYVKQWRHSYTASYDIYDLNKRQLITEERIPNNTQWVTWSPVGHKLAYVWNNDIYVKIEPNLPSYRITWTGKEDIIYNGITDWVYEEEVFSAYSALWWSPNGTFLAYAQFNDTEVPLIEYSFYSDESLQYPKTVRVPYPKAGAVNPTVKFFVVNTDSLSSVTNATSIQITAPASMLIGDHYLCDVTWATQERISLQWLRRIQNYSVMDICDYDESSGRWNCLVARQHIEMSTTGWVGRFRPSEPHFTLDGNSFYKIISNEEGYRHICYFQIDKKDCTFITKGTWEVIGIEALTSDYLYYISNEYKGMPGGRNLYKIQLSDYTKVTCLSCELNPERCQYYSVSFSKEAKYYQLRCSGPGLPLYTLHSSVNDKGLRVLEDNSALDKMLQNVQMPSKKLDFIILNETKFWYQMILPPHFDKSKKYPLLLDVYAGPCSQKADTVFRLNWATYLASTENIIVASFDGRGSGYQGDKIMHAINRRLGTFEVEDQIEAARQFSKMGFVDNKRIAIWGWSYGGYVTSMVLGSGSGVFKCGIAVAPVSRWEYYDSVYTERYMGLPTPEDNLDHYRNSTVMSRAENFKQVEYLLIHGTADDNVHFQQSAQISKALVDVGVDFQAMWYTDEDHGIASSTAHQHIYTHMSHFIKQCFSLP

Row | Structure (SMILES) | IC50 [µM]
1 | CCOC(=O)/C=C/c1cnc(CN)c2cc(OC)c(OC)cc12 | 18
2 | CCOC(=O)c1cnc(CN)c2cc(OC)c(OC)c(OC)c12 | 18
3 | CCOC(=O)c1cnc(CN)c2ccc(OC)cc12 | 207
4 | CCOC(=O)c1cnc(CN)c2cc(OC)c(OC)cc12 | 3.4
5 | CCOC(=O)c1cnc(CN)c2cc(O)c(OC)cc12 | 14
6 | CCOC(=O)c1cnc(CN)c2c(OC)ccc(OC)c12 | 2.4
7 | CCOC(=O)c1cnc(CN)c2cc(OCC)c(OC)cc12 | 6.7
8 | COc1cc2c(C(N)=O)cnc(CN)c2cc1OC | 170
9 | COc1cc2c(C(=O)O)cnc(CN)c2cc1OC | 103

The remaining molecules from weak to strong by IC50, led by results:

Row | IC50 [µM] | Structure (SMILES)
10 | 948 | CCOC(=O)c1cnc(CN(C)C)c2cc(OC)c(OC)cc12
11 | 746 | CCOC(=O)c1cnc(CCN)c2cc(OC)c(OC)cc12
12 | 731 | CCOC(=O)c1cnc(CNC)c2cc(OC)c(OC)cc12
13 | 277 | COc1cc2c(C=O)cnc(CN)c2cc1OC
14 | 52.6 | CCOC(=O)CCc1cnc(CN)c2cc(OC)c(OC)cc12
15 | 51.4 | CCCNC(=O)c1cnc(CN)c2cc(OC)c(OC)cc12
16 | 31.8 | COc1cc2c(CO)cnc(CN)c2cc1OC
17 | 17 | CCOC(=O)Cc1cnc(CN)c2cc(OC)c(OC)cc12
18 | 8.4 | CCCOc1cc2c(CN)ncc(C(=O)OCC)c2cc1OC
19 | 4.7 | CCOC(=O)c1cnc(CN)c2cc(OC)c(OCC)cc12
20 | 2.3 | CCOC(=O)Nc1cnc(CN)c2cc(OC)c(OC)cc12
21 | 1.1 | CCOC(=O)c1cnc(CN)c2c(OC)c(OC)c(OC)cc12
